# Laboratory results published in patent US20130029970A1 (priority 2009, published 2013).
# Like-named read-outs stand apart in the source and are kept apart here.
# Legend:
# human CB2 (hCB2) = target: T1, human CB2 (hCB2) (Homo sapiens, UniProt P34972); experiment: 35S GTPγS binding assay, hCB2 agonist; format: biochemical
# T1 construct: (cDNA clone) CNR0200000
# Experimental: (§1) cDNA expression clones for human CB1 (hCB1, Genbank Accession No. AY225225) and human CB2 (hCB2, Genbank Accession No. AY242132) expressed in vector pcDNA3.1+ were purchased from UMR cDNA Resource Center, Rolla, Mo. (Clone ID CNR01L000 for hCB1; CNR0200000 for hCB2).
# (§2) Membranes were isolated from transfected cells as follows. Monolayers of cultured cells were washed twice with phosphate-buffered saline (PBS). […] Homogenates were centrifuged 10 minutes at 1000×g at 4° C. The supernatant was collected and was centrifuged for 1 hour at 40,000×g. The supernatant was then decanted and the resulting pellet was re-suspended in 20 mM HEPES, pH 7.4, 5 mM MgCl2, 1 mM EDTA, 10% sucrose with complete cocktail protease inhibitors. Protein concentration of membrane suspensions were measured by Bradford Protein Assay using bovine serum albumin as the standard (BioRad catalog #500-0006). Protein concentrations of membrane suspensions were adjusted with the final buffer in the range of 5 to 10 mg/mL and were stored at −80° C. until further use.
# (§3) Functional assays which monitor G-protein coupled receptor or downstream cellular responses can be used to characterize potential CB1 receptor and/or CB2 receptor agonist or antagonist activities. Direct activation (or inhibition of activation) can be monitored using a GTPγS assay (membrane-based assay) or cAMP assay (whole cell-based assay).
# (§4) ^35S GTPγS binding assays were performed by incubating recombinant cell membranes prepared above (5 μg) in the presence of scintillation proximity assay beads (SPA beads, Catalog #RPNQ0252 GE Healthcare, Buckinghamshire, England) in GTPγS binding buffer [50 mM HEPES (pH 7.4), 100 mM NaCl, 5 mM MgCl2, 0.001% saponin (Sigma catalog #S4521)] supplemented with 20 uM GDP (Sigma catalog #G7127) in the presence or absence of test compound. The reaction was carried out in 96-well microplates with 0.1 nM [^35S]GTPγS (specific activity=1250 Ci/mmol; Perkin Elmer catalog #NEG030X250UC) in a final volume of 100 uL. After a 90 min room temperature incubation, the reaction was analyzed using a scintillation counter (Perkin Elmer Microbeta instrument). Binding data were analyzed using GraphPad Prism.
# human CB1 receptors = target: T2, human CB1 receptors (Homo sapiens, UniProt P21554); experiment: cAMP assay in HEK-293 cells, hCB1 agonist; format: cell-based; details: inhibition of forskolin-stimulated cAMP, HEK-293 cells
# T2 construct: (cDNA clone) CNR01L000
# From the text: (§5) Stable, HEK-293-derived cell lines that recombinantly express hCBI or hCB2 were established. In brief, the clone hCB1 (CNR IL) or hCB2 (CNR2) was transfected into human embryonic kidney cells (HEK-293) using Lipofectamine 2000 (Gibco, Cat#11668-019) according to the manufacturer's protocol. Transfected clones were isolated by single colony purification and clones were screened for receptor expression using a whole cell, ^3H—CP 55,940 radioligand binding assay. HEK-293 stable cells were maintained in Dulbecco's modified Eagles medium (DMEM) containing 10% fetal bovine serum, 2 mM L-glutamine and 0.5 mg/mL G-418.
# as §3
# (§6) cAMP assays were performed in HEK-293 cells stably expressing human CB1 or CB2 receptors. For cannabinoid receptor functional assays measuring agonist effects on cellular cAMP levels, monolayers of cultured cells were harvested with enzyme-free PBS-based cell dissociation buffer (Gibco, Cat#13151-04). Cells suspensions were centrifuged and the cells were washed once with PBS, were centrifuged again, and the cells were re-suspended in HBSS (Hank's Balanced Salt Solution, Cellgro, Cat #21-022-CV) solution containing 10 mM HEPES and 0.1% fatty acid free BSA (Sigma, Cat #A0281). Cell suspensions were prepared at 1,500,000 cells per ml. Stock solutions of test substances (10 mM) in DMSO were diluted to 1 mM using 30% DMSO as diluent. Test substances of solutions (1 mM) were further diluted down to 3× of final assay concentrations in the above HBSS buffer containing 0.1% BSA in the presence of 90 uM forskolin (Sigma Cat#F6886). To perform the assay, 20 uL of cell suspension (1,500,000 cells/mL) were added to each well in 96 well plate and treated with 10 uL test substance solution diluted as described above. Cells and compounds were incubated at 37° C. for 30 minutes. Cells were lysed and cAMP concentration was measured using DiscoveRx −XS+ cAMP assay kit (DiscoveRx Corporation Ltd., Fremont, Calif., USA, Cat #90-0075-03), following the manufacturer's protocol. GraphPad Prism software was used to calculate EC50 values using sigmoidal dose response curve fitting. The maximal amount of cAMP produced by forskolin was defined as 100%. CB1 or CB2 agonists reduced forskolin-stimulated cAMP signaling. The EC50 value of an agonist compound was defined as the concentration at which 50% of the forskolin-stimulated cAMP synthesis was inhibited.
# [1] = target: T3, recombinant human cannabinoid receptor CB2 (Homo sapiens, UniProt P34972); experiment: Cannabinoid receptor radioligand binding assay, [3H]-CP 55,940 displacement, hCB2
# T3 construct: (cDNA clone) CNR0200000
# Experimental: as §2
# A rapid filtration technique using Millipore FB filter plates (Catalog #MADVNOB) and filtration apparatus (Millipore system Catalog MAVM0960R) with vacuum aspiration was used to harvest and rinse labeled membranes (8 times with 0.2 mL of chilled binding buffer). […] Binding data were analyzed using GraphPad Prism (GraphPad Software, Inc. San Diego, Calif.).
# [2] = target: T4, recombinant human cannabinoid receptor CB1 (Homo sapiens, UniProt P21554); experiment: Cannabinoid receptor radioligand binding assay, [3H]-CP 55,940 displacement, hCB1
# T4 construct: (cDNA clone) CNR01L000
# From the text: as §5
# (§7) Membranes were isolated from transfected cells as follows. Monolayers of cultured cells were washed twice with phosphate-buffered saline (PBS). Cells were scraped into 20 mM HEPES, pH 7.4, 10 mM EDTA containing complete cocktail protease inhibitors (Roche, Catalog #11 697 498 001) and were homogenized by an electric-powered mechanical probe homogenizer (Omni GLH; probe G7-195S) for 40 seconds at 7000 rpm. Homogenates were centrifuged 10 minutes at 1000×g at 4° C. The supernatant was collected and was centrifuged for 1 hour at 40,000×g. The supernatant was then decanted and the resulting pellet was re-suspended in 20 mM HEPES, pH 7.4, 5 mM MgCl2, 1 mM EDTA, 10% sucrose with complete cocktail protease inhibitors. Protein concentration of membrane suspensions were measured by Bradford Protein Assay using bovine serum albumin as the standard (BioRad catalog #500-0006). Protein concentrations of membrane suspensions were adjusted with the final buffer in the range of 5 to 10 mg/mL and were stored at −80° C. until further use.
# Radioligand binding assays were performed by incubating membranes (2-10 μg protein) prepared from HEK-293 cells expressing recombinant human cannabinoid receptors, CB1 or CB2, at room temperature with 0.5 nM cannabinoid receptor agonist, [^3H]-CP 55,940 (Perkin Elmer, catalog #NET1051) in 0.2 mL of binding buffer (50 mM Tris-HCl, pH 7.5, 5 mM MgCl2, 2.5 mM EDTA) and 0.1% fatty acid free bovine serum albumin (Sigma Cat. #A0821) for 90 minutes. A rapid filtration technique using Millipore FB filter plates (Catalog #MADVNOB) and filtration apparatus (Millipore system Catalog MAVM0960R) with vacuum aspiration was used to harvest and rinse labeled membranes (8 times with 0.2 mL of chilled binding buffer). The radioactivity bound to the filters was counted with 0.05 mL of liquid scintillant (UltraGold MV, PerkinElmer catalog #6013159) in a scintillation counter (Perkin Elmer Microbeta instrument). Nonspecific binding was determined in the presence of unlabeled 1 μM CP 55,940 (Sigma Aldrich, catalog #C1112). Binding data were analyzed using GraphPad Prism (GraphPad Software, Inc. San Diego, Calif.).
# human CB2 receptors = target: T5, human CB2 receptors (Homo sapiens, UniProt P34972); experiment: cAMP assay in HEK-293 cells, hCB2 agonist; format: cell-based
# T5 construct: (cDNA clone) CNR0200000
# Experimental: as §3
# as §6, with “For cannabinoid receptor functional assays measuring agonist effects on cellular cAMP levels, monolayers of cultured cells were harvested with enzyme-free PBS-based cell dissociation buffer (Gibco, Cat#13151-04).” left out, “100%.” for “100%. CB1 or CB2 agonists reduced forskolin-stimulated cAMP signaling. The EC50 value of an agonist compound was defined as the concentration at which 50% of the forskolin-stimulated cAMP synthesis was inhibited.”
# human CB1 (hCB1) = target: T6, human CB1 (hCB1) (Homo sapiens, UniProt P21554); experiment: 35S GTPγS binding assay, hCB1 agonist; format: biochemical; details: GTPγS agonist, HEK-293 membranes; read-out: hCB1 EC50 (GTPyS ag)
# T6 construct: (cDNA clone) CNR01L000
# From the text: as §1, §5, §7, §3, §4
# T5 sequence (P34972 whole entry): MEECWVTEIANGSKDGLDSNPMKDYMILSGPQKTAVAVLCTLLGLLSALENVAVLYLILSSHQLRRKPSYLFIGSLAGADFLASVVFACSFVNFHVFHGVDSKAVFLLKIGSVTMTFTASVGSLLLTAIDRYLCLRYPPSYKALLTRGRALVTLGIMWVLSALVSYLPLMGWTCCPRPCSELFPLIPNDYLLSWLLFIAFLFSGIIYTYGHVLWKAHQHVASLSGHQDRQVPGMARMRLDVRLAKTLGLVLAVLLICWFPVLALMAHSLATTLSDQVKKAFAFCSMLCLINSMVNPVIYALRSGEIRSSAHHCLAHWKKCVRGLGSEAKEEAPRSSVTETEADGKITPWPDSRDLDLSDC
# T3 sequence (P34972 whole entry): as above
# T1 sequence (P34972 whole entry): as above
# T4 sequence (P21554 whole entry): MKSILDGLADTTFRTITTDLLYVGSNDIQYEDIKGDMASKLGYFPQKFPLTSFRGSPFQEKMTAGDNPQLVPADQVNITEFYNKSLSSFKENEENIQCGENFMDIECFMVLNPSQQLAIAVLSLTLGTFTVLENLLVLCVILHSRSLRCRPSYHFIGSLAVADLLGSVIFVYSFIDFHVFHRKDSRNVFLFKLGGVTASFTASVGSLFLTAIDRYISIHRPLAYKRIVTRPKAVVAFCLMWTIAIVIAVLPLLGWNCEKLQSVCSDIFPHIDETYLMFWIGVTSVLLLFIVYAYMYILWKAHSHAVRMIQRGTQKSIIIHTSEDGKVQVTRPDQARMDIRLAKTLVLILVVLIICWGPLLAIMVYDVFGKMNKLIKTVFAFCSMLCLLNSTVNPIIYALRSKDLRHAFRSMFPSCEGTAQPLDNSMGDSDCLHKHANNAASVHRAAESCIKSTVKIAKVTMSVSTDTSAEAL
# T2 sequence (P21554 whole entry): as above
# T6 sequence (P21554 whole entry): as above
SMILES,EC50 (human CB2 (hCB2)) [nM],"hCB1 EC50 (cAMP ag, nM) (human CB1 receptors)",IC50 [1] [nM],IC50 [2] [nM],"hCB2 EC50 (cAMP ag, nM) (human CB2 receptors; inhibition of forskolin-stimulated cAMP, HEK-293 cells)","IC50 ([1]; displacement of 0.5 nM [3H]-CP 55,940, read-out: hCB2 IC50 (CP displ)) [nM]","IC50 ([2]; displacement of 0.5 nM [3H]-CP 55,940, read-out: hCB1 IC50 (CP displ)) [nM]",EC50 (human CB2 receptors) [nM],"EC50 (human CB2 (hCB2); GTPγS agonist, HEK-293 membranes, read-out: hCB2 EC50 (GTPyS ag)) [nM]",EC50 (human CB1 (hCB1)) [nM]
"Cc1cc2cc(C(=O)c3cccc(Cl)c3Cl)sc2n1C [Compound 20, (2,3-Dichlorophenyl)(5,6-dimethyl-6H-thieno[2,3-b]pyrrol-2-yl)methanone]",100 to 1000,"NS (NS means “Not Significant,” which means less than 30% agonist activity when compared to the positive control.)",1000 to 10000,> 10000,–,–,–,–,–,–
"COc1ccc(C(=O)c2cc3cc(C)n(CCn4ccnc4)c3s2)cc1 [Compound 67, (6-(2-(1H-Imidazol-1-yl)ethyl)-5-methyl-6H-thieno[2,3-b]pyrrol-2-yl)(4-methoxyphenyl)methanone]",100 to 1000,"NS (NS means “Not Significant,” which means less than 30% agonist activity when compared to the positive control.)",1000 to 10000,> 10000,–,–,–,–,–,–
"COc1ccc(C(=O)c2cc3cc(C)n(CCCN(C)S(C)(=O)=O)c3s2)cc1 [Compound 69, N-(3-(2-(4-Methoxybenzoyl)-5-methyl-6H-thieno[2,3-b]pyrrol-6-yl)propyl)-N-methylmethanesulfonamide]",100 to 1000,"NS (NS means “Not Significant,” which means less than 30% agonist activity when compared to the positive control.)",1000 to 10000,> 10000,–,–,–,–,–,–
"COc1ccc(C(=O)c2cc3cc(C)n(CCN4CCN(S(C)(=O)=O)CC4)c3s2)cn1 [Compound 143, (6-methoxypyridin-3-yl)(5-methyl-6-(2-(4-(methylsulfonyl)piperazin-1-yl)ethyl)-6H-thieno[2,3-b]pyrrol-2-yl)methanone]",–,"NS (NS means “Not Significant,” which means less than 30% agonist activity when compared to the positive control.)",–,–,"NS (NS means “Not Significant,” which means less than 30% agonist activity when compared to the positive control.)",> 10000,> 10000,–,–,–
"COc1ccc(C(=O)c2cc3cc(C)n(CCN4CCCC4C(=O)O)c3s2)cn1 (stereo not drawn) [Compound 146, 1-(2-(2-(6-methoxynicotinoyl)-5-methyl-6H-thieno[2,3-b]pyrrol-6-yl)ethyl)pyrrolidine-2-carboxylic acid]",–,"NS (NS means “Not Significant,” which means less than 30% agonist activity when compared to the positive control.)",100 to 1000,> 10000,–,–,–,100 to 1000,–,–
"COc1ccc(C(=O)c2cc3cc(C)n(CCNCC4CCOCC4)c3s2)cn1 [Compound 149, (6-methoxypyridin-3-yl)(5-methyl-6-(2-((tetrahydro-2H-pyran-4-yl)methylamino)ethyl)-6H-thieno[2,3-b]pyrrol-2-yl)methanone]",–,"NS (NS means “Not Significant,” which means less than 30% agonist activity when compared to the positive control.)",> 10000,> 10000,–,–,–,100 to 1000,–,–
"COc1ccc(C(=O)c2cc3cc(C)n(C(=S)SC)c3s2)cc1 [Compound 155, Methyl 2-(4-methoxybenzoyl)-5-methyl-6H-thieno[2,3-b]pyrrole-6-carbodithioate]",–,"NS (NS means “Not Significant,” which means less than 30% agonist activity when compared to the positive control.)",–,–,–,–,–,–,100 to 1000,> 10000
"COc1ccc(C(=O)c2cc3cc(C)n(CCN4CCC(OC)CC4)c3s2)cn1 [Compound 156, (6-(2-(4-methoxypiperidin-1-yl)ethyl)-5-methyl-6H-thieno[2,3-b]pyrrol-2-yl)(6-methoxypyridin-3-yl)methanone]",> 10000,"NS (NS means “Not Significant,” which means less than 30% agonist activity when compared to the positive control.)",–,–,–,–,–,–,–,> 10000
